Source: PubChem BioAssay (NCI)
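Test compounds were applied to cells in 96-well plates for 48 hours at 5 doses. The concentration for 50% growth inhibition is given as GI50. TGI marks complete inhibition of growth.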

Experiments:
Assay in all cases: NCI-60 cell line screen, 48 h
786-0 renal = test system: 786-0 renal
A498 renal = test system: A498 renal
A549 NSCLC = test system: A549 NSCLC
ACHN renal = test system: ACHN renal
BT-549 breast = test system: BT-549 breast
CAKI-1 renal = test system: CAKI-1 renal
CCRF-CEM leukemia = test system: CCRF-CEM leukemia
COLO 205 colon = test system: COLO 205 colon
DU-145 prostate = test system: DU-145 prostate
EKVX NSCLC = test system: EKVX NSCLC
HCC-2998 colon = test system: HCC-2998 colon
HCT-116 colon = test system: HCT-116 colon
HCT-15 colon = test system: HCT-15 colon
HL-60(TB) leukemia = test system: HL-60(TB) leukemia
HOP-62 NSCLC = test system: HOP-62 NSCLC
HOP-92 NSCLC = test system: HOP-92 NSCLC
HS 578T breast = test system: HS 578T breast
HT29 colon = test system: HT29 colon
IGROV1 ovarian = test system: IGROV1 ovarian
K-562 leukemia = test system: K-562 leukemia
KM12 colon = test system: KM12 colon
LOX IMVI melanoma = test system: LOX IMVI melanoma
M14 melanoma = test system: M14 melanoma
MALME-3M melanoma = test system: MALME-3M melanoma
MCF7 breast = test system: MCF7 breast
MDA-MB-231 breast = test system: MDA-MB-231 breast
MDA-MB-435 = test system: MDA-MB-435
MOLT-4 leukemia = test system: MOLT-4 leukemia
NCI-H226 lung = test system: NCI-H226 lung
NCI-H23 lung = test system: NCI-H23 lung
NCI-H460 lung = test system: NCI-H460 lung
NCI-H522 lung = test system: NCI-H522 lung
NCI/ADR-RES ovarian = test system: NCI/ADR-RES ovarian
OVCAR-3 ovarian = test system: OVCAR-3 ovarian
OVCAR-4 ovarian = test system: OVCAR-4 ovarian
OVCAR-5 ovarian = test system: OVCAR-5 ovarian
OVCAR-8 ovarian = test system: OVCAR-8 ovarian
PC-3 prostate = test system: PC-3 prostate
RPMI-8226 leukemia = test system: RPMI-8226 leukemia
RXF 393 renal = test system: RXF 393 renal
SF-268 CNS = test system: SF-268 CNS
SF-295 CNS = test system: SF-295 CNS
SF-539 CNS = test system: SF-539 CNS
SK-MEL-2 melanoma = test system: SK-MEL-2 melanoma
SK-MEL-28 melanoma = test system: SK-MEL-28 melanoma
SK-MEL-5 melanoma = test system: SK-MEL-5 melanoma
SK-OV-3 ovarian = test system: SK-OV-3 ovarian
SN12C renal = test system: SN12C renal
SNB-19 CNS = test system: SNB-19 CNS
SNB-75 CNS = test system: SNB-75 CNS
SR leukemia = test system: SR leukemia
SW-620 colon = test system: SW-620 colon
T-47D breast = test system: T-47D breast
TK-10 renal = test system: TK-10 renal
U251 CNS = test system: U251 CNS
UACC-257 melanoma = test system: UACC-257 melanoma
UACC-62 melanoma = test system: UACC-62 melanoma
UO-31 renal = test system: UO-31 renal

## O=S1(=O)NCCCN1CCNc1nccc(-c2c(-c3cccc(O)c3)nc3sccn23)n1
786-0 renal
  GI50: 14.4 µM
  TGI: > 100 µM
A498 renal
  GI50: 15.5 µM
  TGI: 45.9 µM
A549 NSCLC
  GI50: 42.5 µM
  TGI: > 100 µM
ACHN renal
  GI50: 11.8 µM
  TGI: > 100 µM
BT-549 breast
  GI50: 24.3 µM
  TGI: > 100 µM
CAKI-1 renal
  GI50: 17.4 µM
  TGI: > 94 µM
CCRF-CEM leukemia
  GI50: 13.5 µM
  TGI: > 100 µM
COLO 205 colon
  GI50: 581 nM
  TGI: 27.4 µM
DU-145 prostate
  GI50: 15.9 µM
  TGI: > 100 µM
EKVX NSCLC
  GI50: 61.3 µM
  TGI: > 100 µM
HCC-2998 colon
  GI50: 31.3 µM
  TGI: > 92 µM
HCT-116 colon
  GI50: 5.26 µM
  TGI: 38.4 µM
HCT-15 colon
  GI50: 43.6 µM
  TGI: > 100 µM
HL-60(TB) leukemia
  GI50: 23 µM
  TGI: 60 µM
HOP-62 NSCLC
  GI50: 42.3 µM
  TGI: > 100 µM
HOP-92 NSCLC
  GI50: 27.3 µM
  TGI: > 93.5 µM
HS 578T breast
  GI50: 10.8 µM
  TGI: > 81.4 µM
HT29 colon
  GI50: 7.65 µM
  TGI: > 100 µM
IGROV1 ovarian
  GI50: 11.3 µM
  TGI: 64.4 µM
K-562 leukemia
  GI50: 21.6 µM
  TGI: > 100 µM
KM12 colon
  GI50: 33.3 µM
  TGI: > 90.4 µM
LOX IMVI melanoma
  GI50: 2460 nM
  TGI: 24 µM
M14 melanoma
  GI50: 366 nM
  TGI: 15.5 µM
MALME-3M melanoma
  GI50: 108 nM
  TGI: 3.26 µM
MCF7 breast
  GI50: 29.5 µM
  TGI: > 100 µM
MDA-MB-231 breast
  GI50: 16.1 µM
  TGI: > 100 µM
MDA-MB-435
  GI50: 563 nM
  TGI: > 100 µM
MOLT-4 leukemia
  GI50: 22.9 µM
  TGI: > 77.6 µM
NCI-H226 lung
  GI50: 18.9 µM
  TGI: 73.9 µM
NCI-H23 lung
  GI50: 29 µM
  TGI: > 100 µM
NCI-H460 lung
  GI50: 21.5 µM
  TGI: > 100 µM
NCI-H522 lung
  GI50: 14.6 µM
  TGI: 80.7 µM
NCI/ADR-RES ovarian
  GI50: > 100 µM
  TGI: > 100 µM
OVCAR-3 ovarian
  GI50: 19.4 µM
  TGI: > 100 µM
OVCAR-4 ovarian
  GI50: 17.5 µM
  TGI: > 96.1 µM
OVCAR-5 ovarian
  GI50: 49.8 µM
  TGI: > 100 µM
OVCAR-8 ovarian
  GI50: 2860 nM
  TGI: > 100 µM
PC-3 prostate
  GI50: 45 µM
  TGI: > 100 µM
RPMI-8226 leukemia
  GI50: 35.9 µM
  TGI: > 87.5 µM
RXF 393 renal
  GI50: 5.17 µM
  TGI: 38.4 µM
SF-268 CNS
  GI50: 24.4 µM
  TGI: > 100 µM
SF-295 CNS
  GI50: 51.9 µM
  TGI: > 100 µM
SF-539 CNS
  GI50: 33.5 µM
  TGI: > 100 µM
SK-MEL-2 melanoma
  GI50: 2570 nM
  TGI: 9.66 µM
SK-MEL-28 melanoma
  GI50: 245 nM
  TGI: > 100 µM
SK-MEL-5 melanoma
  GI50: 1710 nM
  TGI: 17.3 µM
SK-OV-3 ovarian
  GI50: 5.93 µM
  TGI: 63.8 µM
SN12C renal
  GI50: 10.2 µM
  TGI: > 100 µM
SNB-19 CNS
  GI50: > 92.5 µM
  TGI: > 100 µM
SNB-75 CNS
  GI50: 7.78 µM
  TGI: > 100 µM
SR leukemia
  GI50: 5.55 µM
  TGI: 59.3 µM
SW-620 colon
  GI50: 33 µM
  TGI: > 100 µM
T-47D breast
  GI50: 23.3 µM
  TGI: > 100 µM
TK-10 renal
  GI50: 33.6 µM
  TGI: > 100 µM
U251 CNS
  GI50: 21.6 µM
  TGI: > 100 µM
UACC-257 melanoma
  GI50: 2990 nM
  TGI: > 100 µM
UACC-62 melanoma
  GI50: 87.3 nM
  TGI: 5.66 µM
UO-31 renal
  GI50: 37 µM
  TGI: > 96.6 µM
